Measurements reported in patent US20250099420A1, “SMALL MOLECULE MODULATORS OF GPR139 COMPLEX” (University of Florida Research Foundation, Incorporated, priority 2022, published 2025).
Like-named read-outs stand apart in the source and are kept apart here.

What was measured:
GPR139 = molecular target: T1, GPR139 (Homo sapiens, UniProt Q6DWJ6); experiment: GPR139 Agonist titration / agonist counterscreen assay (calcium detection, HEK-GPR139 cells); type: cell-based; parameters: expressed in transfected cells; host or cells: HEK Aequorin cells, Maxcyte transient transfection; details: GPR139 Agonist Activity; for Averaged Max % Response (±St. Dev.): activity relative to known control; for EC50: read-out: EC50
T1 sequence (Q6DWJ6 1-353): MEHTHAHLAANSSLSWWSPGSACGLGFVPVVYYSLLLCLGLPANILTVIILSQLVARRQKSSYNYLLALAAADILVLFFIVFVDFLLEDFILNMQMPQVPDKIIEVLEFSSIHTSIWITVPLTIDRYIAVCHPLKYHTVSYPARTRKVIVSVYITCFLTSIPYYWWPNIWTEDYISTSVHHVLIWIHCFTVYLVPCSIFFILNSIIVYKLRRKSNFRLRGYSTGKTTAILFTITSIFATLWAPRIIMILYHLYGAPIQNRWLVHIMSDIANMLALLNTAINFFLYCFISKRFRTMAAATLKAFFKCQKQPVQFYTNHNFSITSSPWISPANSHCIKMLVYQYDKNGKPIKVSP
Procedure: GPR activity was assessed using a calcium detection assay. […] Negative control samples were treated with DMSO. […] Intracellular calcium was measured using Calcium 5.

parental HEK cells = experiment: HEK parental Agonist Counterscreen Assay (non-transfected cells); type: cell-based; details: for Averaged Max % Response (±St. Dev.): activity relative to known control
Text: The high control for the agonist counterscreen was Forskolin not acetylcholine.

[1] = Homo sapiens, HEK293, HEK Agonist Activity section of Table 4 (parental HEK counterscreen)
[2] = values printed in E-notation without unit
[3] = HEK Agonist Activity section of Table 4 (parental HEK counterscreen)
[4] = Homo sapiens, HEK293, HEK Agonist Activity, parental non-transfected HEK cells
[5] = HEK Agonist Activity, parental non-transfected HEK cells

| SMILES | Averaged Max % Response (±St. Dev.) (GPR139) [%] | Lipophilic Efficiency (logD) (GPR139; based on logD) | Lipophilic Efficiency (logP) (GPR139; based on logP) | Hill Slope (GPR139; fitted dose-response curve) | Efficiency Ligand (GPR139; ligand efficiency) | Lipophilic Efficiency (logD) (parental HEK cells; HEK Agonist Activity section) | Lipophilic Efficiency (logP) (parental HEK cells; HEK Agonist Activity section) | Averaged Max % Response (±St. Dev.) (parental HEK cells; HEK Agonist Activity section) [%] | EC50 (parental HEK cells; [1]) [µM] | EC50 (GPR139; [2]) [µM] | EC50 (parental HEK cells; [3]) [µM] | other results |
| --- | --- | --- | --- | --- | --- | --- | --- | --- | --- | --- | --- | --- |
| Cc1cc(CC(=O)N/C=C/c2cccc3ccccc23)n[nH]1 [SR-01000080408] | 105.88 ± 16.21 | 6.30 | 4.72 | 0.34 | 0.45 | 4.10 | 2.51 | 71.97 ± 7.16 | 11.9 |  |  | Hill Slope (parental HEK cells; HEK Agonist Activity section): 1.95 |
| CC1=NNC(=O)C1CC(=O)N/N=C/c1cccc2ccccc12 (stereo not shown) [SR-01000080433] | 107.91 ± 12.91 | 4.98 | 4.98 | 0.75 | 0.40 | 3.22 | 3.22 | 29.03 ± 7.47 |  | 0.242 | > 14.1 |  |
| CC(C)Cn1c2c(c(=O)[nH]c1=O)C(NC(=O)CCC1CCCCC1)(C(F)(F)F)C(=O)N2 (stereo not shown) [SR-01000086488] | 78.41 ± 20.14 |  |  |  |  | 2.44 | 2.40 | 1.08 ± 3.12 | > 14.1 |  |  | Efficiency Ligand (GPR139): 0.29; Hill Slope (GPR139): 1.22; Lipophilic Efficiency (logD) (GPR139): 3.95; Lipophilic Efficiency (logP) (GPR139): 3.92; EC50 (GPR139; HEK-GPR139 cells): 0.43 µM |
| O=C(Cn1cc2c(n1)CCCCC2)NCCCc1ccccc1 [SR-01000088420] | 100.76 ± 18.47 | 3.28 | 3.28 | 1.29 | 0.41 | 1.33 | 1.33 | 12.56 ± 5.54 |  | 0.157 | > 14.1 |  |
| Cc1ccc(CCNC(=O)Cn2cc3c(n2)CCCCC3)cc1 [SR-01000088477] | 120.85 ± 28.06 | 4.18 | 4.18 | 0.72 | 0.47 |  |  |  |  |  |  | Lipophilic Efficiency (logD) (parental HEK cells; HEK Agonist Activity): 1.26; Lipophilic Efficiency (logP) (parental HEK cells; HEK Agonist Activity): 1.26; Averaged Max % Response (±St. Dev.) (parental HEK cells; HEK Agonist Activity): −0.30 ± 8.57%; EC50 (parental HEK cells; [4]): > 14.1 µM |
| O=C1N2CN(Cc3ccccc3)CN3C(=O)N4CN(Cc5ccccc5)CN1C4C23 (stereo not shown) [SR-01000090996] | 117.44 ± 4.30 | 4.52 | 4.52 | 1.21 | 0.34 | 2.07 | 2.07 | −5.40 ± 6.26 | > 14.1 | 0.0493 |  |  |
| CC(C)(C)n1c2c(c(=O)[nH]c1=O)C(NC(=O)CCC1CCCCC1)(C(F)(F)F)C(=O)N2 (stereo not shown) [SR-01000091502] | 88.58 ± 8.42 | 4.63 | 4.59 | 0.85 | 0.31 | 2.63 | 2.59 | −12.00 ± 4.68 |  | 0.141 | > 14.1 |  |
| Cc1ccccc1CN1CCN(CC(=O)NCCc2ccc(Cl)cc2)C1=O [SR-01000093460] | 112.00 ± 16.24 | 6.04 | 6.04 |  | 0.47 |  |  |  |  |  |  | Hill Slope (parental HEK cells; HEK Agonist Activity): 15.09; Lipophilic Efficiency (logD) (parental HEK cells; HEK Agonist Activity): 1.85; Lipophilic Efficiency (logP) (parental HEK cells; HEK Agonist Activity): 1.85; Averaged Max % Response (±St. Dev.) (parental HEK cells; HEK Agonist Activity): 109.44 ± 22.66%; EC50 (parental HEK cells; [5]): 11 µM |
| C=C(CCc1cccc(CC)c1)C(C)C1CCC(Cc2ccccc2C)C1=C (stereo not shown) [SR-01000095280] | 122.65 ± 11.25 | 6.68 | 6.68 |  | 0.41 |  |  |  |  |  |  | Lipophilic Efficiency (logD) (parental HEK cells; HEK Agonist Activity): 2.38; Lipophilic Efficiency (logP) (parental HEK cells; HEK Agonist Activity): 2.38; Averaged Max % Response (±St. Dev.) (parental HEK cells; HEK Agonist Activity): 25.01 ± 8.12%; EC50 (parental HEK cells; [4]): > 14.1 µM |
| Cc1cc(NC(=O)Cn2ncc3c2-c2ccccc2OC3)no1 [SR-01000098884] | 75.62 ± 16.43 |  |  |  |  | 3.22 | 3.22 | 0.57 ± 13.32 |  |  | > 14.1 | Efficiency Ligand (GPR139): 0.35; Hill Slope (GPR139): 0.72; Lipophilic Efficiency (logD) (GPR139): 4.12; Lipophilic Efficiency (logP) (GPR139): 4.12; EC50 (GPR139; HEK-GPR139 cells): 1.8 µM |
| O=C(Cn1ncc2c1-c1ccccc1OC2)Nc1ccc(CCO)cc1 [SR-01000098914] | 97.42 ± 2.76 |  |  |  |  | 2.18 | 2.18 | 11.28 ± 8.03 | > 14.1 |  |  | Efficiency Ligand (GPR139): 0.34; Hill Slope (GPR139): 0.93; Lipophilic Efficiency (logD) (GPR139): 3.66; Lipophilic Efficiency (logP) (GPR139): 3.66; EC50 (GPR139; HEK-GPR139 cells): 0.468 µM |
| CC(C)c1ccc(NC(=O)Cn2ncc3c2-c2ccccc2OC3)cc1 [SR-01000098920] | 139.09 ± 25.80 | 3.02 | 3.02 | 0.40 | 0.36 | 1.13 | 1.13 | 10.87 ± 9.19 |  | 0.181 | > 14.1 |  |
| CCc1cccc(NC(=O)Cn2ncc3c2-c2ccccc2OC3)c1 [SR-01000098944] | 118.40 ± 16.09 | 4.22 | 4.22 | 0.20 | 0.43 |  |  |  |  | 0.0224 |  | Lipophilic Efficiency (logD) (parental HEK cells; HEK Agonist Activity): 1.42; Lipophilic Efficiency (logP) (parental HEK cells; HEK Agonist Activity): 1.42; Averaged Max % Response (±St. Dev.) (parental HEK cells; HEK Agonist Activity): 16.33 ± 3.15%; EC50 (parental HEK cells; [5]): > 14.1 µM |
| C=C(CC1C=CC2=C1c1ccccc1CC2)Nc1ccc(CC)cc1 (stereo not shown) [SR-01000098976] | 103.10 ± 11.12 | 4.60 | 4.60 | 0.87 | 0.39 | 2.53 | 2.53 | 25.21 ± 6.04 | > 14.1 |  |  |  |
| O=C(Cn1ncc2c1-c1ccccc1OC2)Nc1ccc(Cl)cc1 [SR-01000098980] | 103.90 ± 24.19 |  |  |  |  | 1.77 | 1.77 | 16.39 ± 16.07 |  |  | > 14.1 | Efficiency Ligand (GPR139): 0.36; Hill Slope (GPR139): 0.43; Lipophilic Efficiency (logD) (GPR139): 3.09; Lipophilic Efficiency (logP) (GPR139): 3.09; EC50 (GPR139; HEK-GPR139 cells): 0.68 µM |
